Several values for one entry are separate records, joined by “and”; a condition that tells them apart may be missing. Equal entries are not always repeated. Values belong to the compound of their own block, whether it stands above or below them.
Tests used:
AspH = target: T1, AspH (Homo sapiens, UniProt Q12797); experiment: Competition assay in a single reaction vessel, AspH-catalyzed hydroxylation (SPE-MS); assay type: biochemical
T1 construct: the tetratricopeptide repeat domain (His6-AspH315-758), was produced and purified as previously reported; made in house
T1 sequence (Q12797 315-758): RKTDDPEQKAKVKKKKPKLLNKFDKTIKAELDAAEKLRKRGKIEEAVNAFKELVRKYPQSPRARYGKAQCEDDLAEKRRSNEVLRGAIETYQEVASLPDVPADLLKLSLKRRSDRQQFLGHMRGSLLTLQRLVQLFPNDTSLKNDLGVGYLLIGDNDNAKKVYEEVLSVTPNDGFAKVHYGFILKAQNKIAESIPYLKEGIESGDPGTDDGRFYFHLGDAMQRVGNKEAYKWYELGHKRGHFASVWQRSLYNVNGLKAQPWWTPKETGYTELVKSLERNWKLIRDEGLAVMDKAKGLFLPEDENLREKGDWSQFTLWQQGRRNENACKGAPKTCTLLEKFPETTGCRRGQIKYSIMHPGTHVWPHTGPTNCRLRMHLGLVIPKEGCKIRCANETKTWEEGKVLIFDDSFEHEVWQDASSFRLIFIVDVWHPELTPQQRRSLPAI

FIH = FIH (Homo sapiens, UniProt Q9NWT6); experiment: FIH steady-state kinetic parameters (SPE-MS, initial hydroxylation rates); assay type: biochemical; parameters: slope of initial reaction rate: unit not given here
How it was run: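 FIH-catalysed CA1-20 peptide hydroxylation with varied 2OG or 2OG derivative, 20 μM ammonium iron(II) sulfate plus L-ascorbic acid, in 50 mM Tris, 50 mM NaCl, pH 7.5, 20 °C, monitored by SPE-MS (~1 sample/40 s). Initial rates fitted to Michaelis–Menten for vapp and Kapp; independent triplicates.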

Sequence of FIH (Q9NWT6 whole entry): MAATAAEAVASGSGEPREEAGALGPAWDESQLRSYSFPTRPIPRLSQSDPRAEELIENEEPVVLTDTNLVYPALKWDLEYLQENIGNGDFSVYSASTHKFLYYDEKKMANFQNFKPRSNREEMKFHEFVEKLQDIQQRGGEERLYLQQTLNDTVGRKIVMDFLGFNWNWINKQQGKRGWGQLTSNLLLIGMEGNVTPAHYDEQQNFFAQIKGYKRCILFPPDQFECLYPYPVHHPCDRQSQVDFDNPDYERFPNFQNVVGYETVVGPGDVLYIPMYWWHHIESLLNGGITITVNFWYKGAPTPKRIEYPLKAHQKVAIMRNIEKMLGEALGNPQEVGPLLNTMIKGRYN

substrate hydroxylation (% conversion) (AspH; Fig 2b, 20 μM 2OG, AspH, 1.4395 min): 100 | substrate hydroxylation (% conversion) (AspH; Fig 2b, 20 μM 2OG, AspH, 1.6805 min): 100 | substrate hydroxylation (% conversion) (AspH; Fig 2b, 20 μM 2OG, AspH, 1.9205 min): 100 | substrate hydroxylation (% conversion) (AspH; Fig 2b, 20 μM 2OG, AspH, 2.40217 min): 100 | substrate hydroxylation (% conversion) (AspH; Fig 2b, 20 μM 2OG, AspH, 2.64367 min): 100 | substrate hydroxylation (% conversion) (AspH; Fig 2b, 20 μM 2OG, AspH, 2.88417 min): 100 | substrate hydroxylation (% conversion) (AspH; Fig 2b, 20 μM 2OG, AspH, 3.1255 min): 100 | substrate hydroxylation (% conversion) (AspH; Fig 2b, 20 μM 2OG, AspH, 3.3665 min): 100 | substrate hydroxylation (% conversion) (AspH; Fig 2b, 20 μM 2OG, AspH, 3.60917 min): 100 | AspH-catalyzed hFX-EGFD1_86–124-4Ser hydroxylation (AspH; Fig 2b, 20 μM 2OG, within about 1 min): > 95% | time to apparent completion of AspH substrate hydroxylation (AspH; Fig 4a, 0.5 mM 2OG, absence of 13): ~ 1 min | AspH conversion (AspH; Supplementary Fig 8a, 20 μM 2OG, after 2 min): > 95% | slope of initial reaction rate (FIH; CA1-20, 0.25 μM 2OG): 0.01003 and 0.007495 | slope of initial reaction rate (FIH; CA1-20, 0.5 μM 2OG): 0.01547 and 0.01452 and 0.0138 | slope of initial reaction rate (FIH; CA1-20, 1 μM 2OG): 0.01838 and 0.01865 and 0.02116 | slope of initial reaction rate (FIH; CA1-20, 2 μM 2OG): 0.02416 and 0.02022 and 0.02356 | slope of initial reaction rate (FIH; CA1-20, 4 μM 2OG): 0.02388 and 0.01977 and 0.02365 | slope of initial reaction rate (FIH; CA1-20, 8 μM 2OG): 0.02261 and 0.02524 | slope of initial reaction rate (FIH; HIF-1a788-822, 0.1 μM 2OG): 0.000581 and 0.000778 and 0.00072 | slope of initial reaction rate (FIH; HIF-1a788-822, 0.25 μM 2OG): 0.001141 and 0.001302 and 0.001382 | slope of initial reaction rate (FIH; HIF-1a788-822, 0.5 μM 2OG): 0.001962 and 0.002167 and 0.002275 | slope of initial reaction rate (FIH; HIF-1a788-822, 1 μM 2OG): 0.003115 and 0.003005 and 0.00301 | slope of initial reaction rate (FIH; HIF-1a788-822, 2 μM 2OG): 0.00418 and 0.004157 and 0.004411 | slope of initial reaction rate (FIH; HIF-1a788-822, 4 μM 2OG): 0.004637 and 0.004674 and 0.005127 | slope of initial reaction rate (FIH; HIF-1a788-822, 8 μM 2OG): 0.004319 and 0.005019 and 0.005929 | slope of initial reaction rate (FIH; HIF-1a788-822, 16 μM 2OG): 0.00539 and 0.005468 and 0.006359 | slope of initial reaction rate (FIH; HIF-1a788-822, 32 μM 2OG): 0.006447 and 0.005635 | FIH Kmapp (FIH; HIF-1α788–822 substrate): 0.84 µM
Compound: O=C(O)CCC(=O)C(=O)O [2OG, 2-Oxoglutarate]

substrate hydroxylation (% conversion) (AspH; Fig 2c, 20 μM 1, AspH, 3.5005 min): 100 | substrate hydroxylation (% conversion) (AspH; Fig 2c, 20 μM 1, AspH, 4.20083 min): 100 | substrate hydroxylation (% conversion) (AspH; Fig 2c, 20 μM 1, AspH, 5.60117 min): 100 | substrate hydroxylation (% conversion) (AspH; Fig 2c, 20 μM 1, AspH, 6.29967 min): 100 | substrate hydroxylation (% conversion) (AspH; Fig 2c, 20 μM 1, AspH, 7.00033 min): 100 | substrate hydroxylation (% conversion) (AspH; Fig 2c, 20 μM 1, AspH, 7.7025 min): 100 | substrate hydroxylation (% conversion) (AspH; Fig 2c, 20 μM 1, AspH, 8.40233 min): 100 | substrate hydroxylation (% conversion) (AspH; Fig 2c, 20 μM 1, AspH, 9.10283 min): 100 | substrate hydroxylation (% conversion) (AspH; Fig 2c, 20 μM 1, AspH, 9.806 min): 100 | substrate hydroxylation (% conversion) (AspH; Fig 2c, 20 μM 1, AspH, […]): 100 | AspH-catalyzed hFX-EGFD1_86–124-4Ser hydroxylation (AspH; Fig 2c, 20 μM 1, within ~2 min): > 95% | SPE-MS determined concentration of hydroxylated HIF-1a peptide (FIH; 0.5 uM compound 1, time 2.098 min): 0.06331 µM and 0.08965 µM and 0.06287 µM | SPE-MS determined concentration of hydroxylated HIF-1a peptide (FIH; 0.5 uM compound 1, time 2.797 min): 0.08372 µM and 0.1109 µM and 0.07695 µM | SPE-MS determined concentration of hydroxylated HIF-1a peptide (FIH; 0.5 uM compound 1, time 3.49667 min): 0.08826 µM and 0.1256 µM and 0.08643 µM | SPE-MS determined concentration of hydroxylated HIF-1a peptide (FIH; 1 uM compound 1, time 0.699833 min): 0.05043 µM and 0.061 µM and 0.05097 µM | SPE-MS determined concentration of hydroxylated HIF-1a peptide (FIH; 1 uM compound 1, time 2.098 min): 0.09957 µM and 0.1098 µM and 0.1306 µM | SPE-MS determined concentration of hydroxylated HIF-1a peptide (FIH; 1 uM compound 1, time 2.797 min): 0.1199 µM and 0.1466 µM and 0.1681 µM | SPE-MS determined concentration of hydroxylated HIF-1a peptide (FIH; 1 uM compound 1, time 3.49667 min): 0.1336 µM | SPE-MS determined concentration of hydroxylated HIF-1a peptide (FIH; 2 uM compound 1, time 0.699833 min): 0.07885 µM and 0.08056 µM and 0.05916 µM | SPE-MS determined concentration of hydroxylated HIF-1a peptide (FIH; 2 uM compound 1, time 2.098 min): 0.1678 µM and 0.1886 µM and 0.1681 µM | SPE-MS determined concentration of hydroxylated HIF-1a peptide (FIH; 2 uM compound 1, time 2.797 min): 0.2164 µM and 0.22 µM and 0.1894 µM | SPE-MS determined concentration of hydroxylated HIF-1a peptide (FIH; 2 uM compound 1, time 3.49667 min): 0.2473 µM and 0.2744 µM and 0.2266 µM | SPE-MS determined concentration of hydroxylated HIF-1a peptide (FIH; 4 uM compound 1, time 0.699833 min): 0.1172 µM and 0.1135 µM and 0.107 µM | SPE-MS determined concentration of hydroxylated HIF-1a peptide (FIH; 4 uM compound 1, time 2.098 min): 0.2558 µM and 0.2656 µM and 0.234 µM | SPE-MS determined concentration of hydroxylated HIF-1a peptide (FIH; 4 uM compound 1, time 2.797 min): 0.3116 µM and 0.3222 µM and 0.2973 µM | SPE-MS determined concentration of hydroxylated HIF-1a peptide (FIH; 4 uM compound 1, time 3.49667 min): 0.3622 µM and 0.3831 µM and 0.3473 µM | SPE-MS determined concentration of hydroxylated HIF-1a peptide (FIH; 8 uM compound 1, time 0.699833 min): 0.1456 µM and 0.1338 µM and 0.1272 µM | SPE-MS determined concentration of hydroxylated HIF-1a peptide (FIH; 8 uM compound 1, time 2.098 min): 0.3135 µM and 0.3095 µM and 0.2806 µM | SPE-MS determined concentration of hydroxylated HIF-1a peptide (FIH; 8 uM compound 1, time 2.797 min): 0.4067 µM and 0.3823 µM and 0.3379 µM | SPE-MS determined concentration of hydroxylated HIF-1a peptide (FIH; 8 uM compound 1, time 3.49667 min): 0.4757 µM and 0.4602 µM and 0.409 µM | SPE-MS determined concentration of hydroxylated HIF-1a peptide (FIH; 16 uM compound 1, time 0.699833 min): 0.1765 µM and 0.1666 µM and 0.1574 µM | SPE-MS determined concentration of hydroxylated HIF-1a peptide (FIH; 16 uM compound 1, time 2.098 min): 0.4139 µM and 0.367 µM and 0.3575 µM | SPE-MS determined concentration of hydroxylated HIF-1a peptide (FIH; 16 uM compound 1, time 2.797 min): 0.521 µM and 0.462 µM and 0.4549 µM | SPE-MS determined concentration of hydroxylated HIF-1a peptide (FIH; 16 uM compound 1, time 3.49667 min): 0.6245 µM and 0.5486 µM and 0.5372 µM | SPE-MS determined concentration of hydroxylated HIF-1a peptide (FIH; 32 uM compound 1, time 0.699833 min): 0.1826 µM and 0.1844 µM and 0.1573 µM | SPE-MS determined concentration of hydroxylated HIF-1a peptide (FIH; 32 uM compound 1, time 2.098 min): 0.3964 µM and 0.4231 µM and 0.3597 µM | SPE-MS determined concentration of hydroxylated HIF-1a peptide (FIH; 32 uM compound 1, time 2.797 min): 0.4756 µM and 0.5305 µM and 0.4654 µM | SPE-MS determined concentration of hydroxylated HIF-1a peptide (FIH; 32 uM compound 1, time 3.49667 min): 0.5827 µM and 0.6364 µM and 0.5668 µM | slope of initial reaction rate (FIH; CA1-20, 1 μM 1): 0.003599 and 0.003561 and 0.003828 | slope of initial reaction rate (FIH; CA1-20, 2 μM 1): 0.005878 and 0.006514 and 0.003549 | slope of initial reaction rate (FIH; CA1-20, 4 μM 1): 0.007274 and 0.005274 and 0.008096 | slope of initial reaction rate (FIH; CA1-20, 8 μM 1): 0.01215 and 0.01007 and 0.00891 | slope of initial reaction rate (FIH; HIF-1a788-822, 0.5 μM 1): 0.000467 and 0.000683 and 0.000488 | slope of initial reaction rate (FIH; HIF-1a788-822, 1 μM 1): 0.000739 and 0.000996 and 0.000679 | slope of initial reaction rate (FIH; HIF-1a788-822, 2 μM 1): 0.001185 and 0.001312 and 0.001139 | slope of initial reaction rate (FIH; HIF-1a788-822, 4 μM 1): 0.001713 and 0.001863 and 0.001678 | slope of initial reaction rate (FIH; HIF-1a788-822, 8 μM 1): 0.002198 and 0.002166 and 0.001912 | slope of initial reaction rate (FIH; HIF-1a788-822, 16 μM 1): 0.002859 and 0.002469 and 0.002609 | slope of initial reaction rate (FIH; HIF-1a788-822, 32 μM 1): 0.002446 and 0.002883 and 0.002629
Compound: CC(CC(=O)O)C(=O)C(=O)O (centres unmarked) [compound 1, 3-methyl-2OG]

From paper PMC8580996, “2-Oxoglutarate derivatives can selectively enhance or inhibit the activity of human oxygenases” (Nature Communications, 2021)
